Measured values reported in patent US9306235B2, “Redox flow battery” (SAMSUNG ELECTRONICS CO., LTD., priority 2010, dated 2016).

Assay: Evaluation of organic electrolyte solubility together with a supporting electrolyte
Assay type: physicochemical
Conditions: generation of precipitates identified
Description: In the case where an organic electrolyte is used together with a supporting electrolyte, solubility of the organic electrolyte is evaluated. As the supporting electrolyte, TEABF4 and SBPBF4 are added to each of 0.0M, 0.2M, and 0.5M propylene carbonate aliquots, and then 1.2M Fe(bpy)3(BF4)2 is added to a final volume of 10 mL. The generation of precipitates is identified for each case.

[1] = supporting electrolyte 0.0 Mole (0.0M) in propylene carbonate
[2] = supporting electrolyte 0.2 Mole (0.2M) in propylene carbonate
[3] = supporting electrolyte 0.5 Mole (0.5M) in propylene carbonate

| SMILES | Solubility of 1.2M Fe(bpy)3(BF4)2 [1] | Solubility of 1.2M Fe(bpy)3(BF4)2 [2] | Solubility of 1.2M Fe(bpy)3(BF4)2 [3] |
| --- | --- | --- | --- |
| CC[N+](CC)(CC)CC.F[B-](F)(F)F [TEABF4, tetraethylammoniumtetrafluoroborate] | Soluble | Precipitation | Precipitation |
| C1CC[N+]2(C1)CCCC2.F[B-](F)(F)F [SBPBF4, spiro-(1,1′)-bipyrrolidiniumtetrafluoroborate] | Soluble | Soluble | Soluble |
